Source: ChEMBL document CHEMBL2074315, “Role of human organic anion transporter 4 in the transport of ochratoxin A” (Biochim Biophys Acta, 2002)

What was measured:
Format in all cases: functional, cell-based
[1] = target: T1, Solute carrier family 22 member 11 (Homo sapiens, UniProt Q9NSA0); test: TP_TRANSPORTER: inhibition of Ochratoxin A uptake (OTA: 1 uM, Aspartame: 200 uM) in OAT4-expressing S2 cells; settings: s2, 200 µM
T1 sequence (Q9NSA0 whole entry): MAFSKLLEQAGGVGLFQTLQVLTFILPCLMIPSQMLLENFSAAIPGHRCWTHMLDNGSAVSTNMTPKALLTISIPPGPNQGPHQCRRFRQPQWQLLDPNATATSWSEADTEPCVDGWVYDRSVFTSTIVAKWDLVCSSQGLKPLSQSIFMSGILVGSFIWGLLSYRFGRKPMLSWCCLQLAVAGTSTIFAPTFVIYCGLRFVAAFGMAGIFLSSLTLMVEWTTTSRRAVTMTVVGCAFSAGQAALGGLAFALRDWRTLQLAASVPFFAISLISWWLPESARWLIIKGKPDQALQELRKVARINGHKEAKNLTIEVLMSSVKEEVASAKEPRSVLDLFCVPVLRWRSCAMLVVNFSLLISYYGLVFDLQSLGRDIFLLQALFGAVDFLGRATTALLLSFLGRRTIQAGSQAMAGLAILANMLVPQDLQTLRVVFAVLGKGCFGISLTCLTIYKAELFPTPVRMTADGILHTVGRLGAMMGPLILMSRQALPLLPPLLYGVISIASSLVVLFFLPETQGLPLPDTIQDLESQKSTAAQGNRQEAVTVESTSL

[2] = target: T2, OAT4 (SLC22A11, solute carrier family 22 member 11) (Homo sapiens, UniProt Q9NSA0); test: TP_TRANSPORTER: uptake in OAT4-expressing S2 cells
T2 sequence (Q9NSA0 whole entry): T1 sequence (Q9NSA0 whole entry)

[3] = target: T1, Solute carrier family 22 member 11; test: TP_TRANSPORTER: inhibition of Ochratoxin A uptake (OTA: 1 uM, PAH: 200 uM) in OAT4-expressing S2 cells; settings: mouse, s2, 200 µM
[4] = target: T1, Solute carrier family 22 member 11; test: TP_TRANSPORTER: inhibition of Ochratoxin A uptake in OAT4-expressing S2 cells
[5] = target: T1, Solute carrier family 22 member 11; test: TP_TRANSPORTER: inhibition of Ochratoxin A uptake (OTA: 1 uM, Indomethacin: 200 uM) in OAT4-expressing S2 cells; settings: mouse, s2, 200 µM
[6] = target: T1, Solute carrier family 22 member 11; test: TP_TRANSPORTER: inhibition of Ochratoxin A uptake (OTA: 1 uM, PCG: 200 uM) in OAT4-expressing S2 cells; settings: s2, 200 µM

For COC(=O)[C@H](Cc1ccccc1)NC(=O)[C@@H](N)CC(=O)O, the Activity [1] was “inhibitor [(at a rough estimate) 80 % of control]”.

Compound C[C@@H]1Cc2c(Cl)cc(C(=O)N[C@@H](Cc3ccccc3)C(=O)O)c(O)c2C(=O)O1 [3R14S-OCHRATOXIN A] has a Km [2] of 22.9 µM.

In the case of Nc1ccc(C(=O)NCC(=O)O)cc1 [AMINOHIPPURIC ACID], the Activity [3] is reported as “is not an inhibitor [-]”.

For CC1=C2C(=CO[C@H](C)[C@H]2C)C(O)=C(C(=O)O)C1=O [CITRININ], the Ki [4] was 366 µM.

In the case of COc1ccc2c(c1)c(CC(=O)O)c(C)n2C(=O)c1ccc(Cl)cc1 [INDOMETHACIN], the Activity [5] is reported as “inhibitor [(at a rough estimate) 75 % of control]”.

For CCCCCCCC(=O)O [OCTANOIC ACID], the Ki [4] was 236 µM.

In the case of CC1(C)S[C@@H]2[C@H](NC(=O)Cc3ccccc3)C(=O)N2[C@H]1C(=O)O [PENICILLIN G], the Activity [6] is reported as “inhibitor [(at a rough estimate) 20 % of control]”.

With CN1C(C(=O)Nc2ccccn2)=C(O)c2ccccc2S1(=O)=O [PIROXICAM] the Ki [4] was 108 µM.
